Assays:
[1] = Acute toxicity on zebrafish over a five-day regimen; design: species or system zebrafish (Danio rerio); conditions: in vivo, other: added to the fish culture (immersion), calculated using the Benchmark Dose Software (BMDS)
zebrafish blood vessels = assay: Staining of zebrafish blood vessels; design: species or system zebrafish (Danio rerio); conditions: in vivo
Description: (§1) Another embodiment of the invention comprises contacting live zebrafish, wild type or not, at various development stages, with the fluorescent compounds. To achieve the contact, the fluorescent compounds can in general be formulated as a solution, in DMSO for instance, and added to the fish culture. […] The fluorescent compounds enter the zebrafish vascular system as a result of such treatment, causing the blood vessels to fluoresce upon excitation and the fluorescence image of the blood vessels and the motion of blood flow can be observed with a microscope. The images can also be recorded with an image capturing device such as a camera. […] Further advantage of the current invention, which is in significant contrast to the transgenic zebrafish models, resides in the fact that the fluorescent compounds are exogenously administered and can be allowed to clear out of the test animals when so desired (see Figure I), such as when further procedures are required with the test animals and the fluorescence may interfere. […]

[2] = test system: goldfish (Carassius auratus) blood serum; assay: Native PAGE of blood serum stained with the fluorescent compound (UV, fluorescence); format: binding; conditions: 25 μM stain
cow blood serum = assay: as above; format: binding; conditions: 25 μM stain
zebrafish = format: in vivo, zebrafish (Danio rerio); conditions: after staining at 10 μM for 1 hour, continuous culture in RO water
Description: as §1

CCOC(=O)c1ccc(C2CC(c3cc4cc(OC)ccc4oc3=O)=NN2c2ccc(C(=O)OCC)cc2)cc1 (centres unmarked) [Diethyl 4,4′-(3-(6-methoxy-2-oxo-2H-chromen-3-yl)-4,5-dihydro-1H-pyrazole-1,5-diyl)dibenzoate]
LC50 at 5 days [1]: 272 µM | Regular working concentration for staining zebrafish blood vessels (zebrafish blood vessels): 10 to 25 µM

CCOC(=O)c1cn(-c2ccccc2)nc1-c1ccccc1 [Ethyl 1,3-diphenyl-1H-pyrazole-4-carboxylate]
Staining of serum bands on Native PAGE [2]: UV as well as matching blue fluorescence | Staining of serum bands on Native PAGE (cow blood serum): UV as well as matching blue fluorescence

CCOC(=O)c1ccc(N2N=C(c3cc4cc(OC)ccc4oc3=O)CC2c2ccccc2)cc1 (centres unmarked) [Ethyl 4-(3-(6-methoxy-2-oxo-2H-chromen-3-yl)-5-phenyl-4,5-dihydro-1H-pyrazol-1-yl)benzoate]
Clearance of the dye (fading of green fluorescence) (zebrafish): incremental fading of green fluorescence over time within the first 6 hours

From US10744213B2, “Fluorescent compounds for imaging of blood vessels and blood flow, and an in vivo screen for pro- and anti-angiogenic agents” (COLOSSUS BIOPHARMA CONSULTANTS COMPANY, LIMITED, priority 2017, dated 2020)
